{"source": "ChEMBL document CHEMBL1201862", "about": "“PubChem BioAssay data set” (2004)", "key": {"[1]": {"target": "T1, Histone-lysine N-methyltransferase NSD2 (Homo sapiens, UniProt O96028)", "T1 sequence (O96028 whole entry)": "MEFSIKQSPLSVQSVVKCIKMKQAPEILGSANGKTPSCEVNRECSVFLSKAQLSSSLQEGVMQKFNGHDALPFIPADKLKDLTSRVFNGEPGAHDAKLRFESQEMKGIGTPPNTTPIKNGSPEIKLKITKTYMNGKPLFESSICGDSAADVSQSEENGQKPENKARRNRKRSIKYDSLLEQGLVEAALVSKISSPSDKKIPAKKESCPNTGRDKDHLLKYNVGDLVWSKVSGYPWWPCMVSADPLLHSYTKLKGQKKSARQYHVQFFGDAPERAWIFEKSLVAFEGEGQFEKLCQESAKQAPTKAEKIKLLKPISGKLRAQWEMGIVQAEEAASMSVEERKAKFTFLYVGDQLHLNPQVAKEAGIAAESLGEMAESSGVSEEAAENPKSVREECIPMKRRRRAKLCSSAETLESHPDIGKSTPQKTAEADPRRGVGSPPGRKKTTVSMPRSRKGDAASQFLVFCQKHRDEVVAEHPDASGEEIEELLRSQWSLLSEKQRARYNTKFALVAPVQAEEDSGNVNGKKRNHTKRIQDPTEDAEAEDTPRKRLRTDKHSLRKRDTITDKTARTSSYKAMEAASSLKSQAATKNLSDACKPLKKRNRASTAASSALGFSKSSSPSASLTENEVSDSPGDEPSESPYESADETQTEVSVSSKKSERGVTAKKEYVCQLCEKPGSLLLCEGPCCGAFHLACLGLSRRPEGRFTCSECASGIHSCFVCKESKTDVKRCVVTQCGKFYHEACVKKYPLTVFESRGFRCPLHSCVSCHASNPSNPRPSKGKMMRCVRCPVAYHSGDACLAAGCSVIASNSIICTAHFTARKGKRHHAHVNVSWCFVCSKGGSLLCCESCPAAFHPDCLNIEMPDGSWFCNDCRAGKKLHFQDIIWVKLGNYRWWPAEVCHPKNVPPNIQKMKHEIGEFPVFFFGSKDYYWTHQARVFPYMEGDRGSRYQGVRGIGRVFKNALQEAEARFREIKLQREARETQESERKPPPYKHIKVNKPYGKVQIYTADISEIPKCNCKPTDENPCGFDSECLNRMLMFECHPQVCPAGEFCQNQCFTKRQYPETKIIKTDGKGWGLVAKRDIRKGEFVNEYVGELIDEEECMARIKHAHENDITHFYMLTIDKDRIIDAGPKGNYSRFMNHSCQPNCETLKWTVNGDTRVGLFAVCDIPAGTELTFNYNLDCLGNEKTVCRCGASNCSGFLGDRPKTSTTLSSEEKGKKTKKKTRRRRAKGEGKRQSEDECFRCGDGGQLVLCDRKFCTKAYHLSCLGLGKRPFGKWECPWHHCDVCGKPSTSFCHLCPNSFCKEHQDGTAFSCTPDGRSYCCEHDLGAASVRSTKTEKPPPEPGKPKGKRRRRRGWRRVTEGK", "format": "biochemical"}, "[2]": {"target": "5'-AMP-activated protein kinase catalytic subunit alpha-1 (Homo sapiens, UniProt Q13131)", "sequence (Q13131 whole entry)": "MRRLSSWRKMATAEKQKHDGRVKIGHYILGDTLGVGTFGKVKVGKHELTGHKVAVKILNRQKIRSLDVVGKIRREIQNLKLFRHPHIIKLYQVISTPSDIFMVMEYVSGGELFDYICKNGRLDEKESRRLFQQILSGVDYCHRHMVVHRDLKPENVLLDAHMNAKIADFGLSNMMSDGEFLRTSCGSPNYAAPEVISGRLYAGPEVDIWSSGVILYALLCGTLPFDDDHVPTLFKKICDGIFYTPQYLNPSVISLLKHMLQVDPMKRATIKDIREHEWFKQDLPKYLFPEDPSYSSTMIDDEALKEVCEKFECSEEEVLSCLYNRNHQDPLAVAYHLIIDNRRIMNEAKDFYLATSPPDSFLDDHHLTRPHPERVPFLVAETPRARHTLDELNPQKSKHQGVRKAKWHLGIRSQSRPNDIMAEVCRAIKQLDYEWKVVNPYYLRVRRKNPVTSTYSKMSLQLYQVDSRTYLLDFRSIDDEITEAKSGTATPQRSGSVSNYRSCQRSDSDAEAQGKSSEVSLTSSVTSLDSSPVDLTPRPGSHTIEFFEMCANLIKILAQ", "format": "functional"}, "Aurora kinase A": {"target": "Aurora kinase A (Homo sapiens, UniProt O14965)", "sequence (O14965 whole entry)": "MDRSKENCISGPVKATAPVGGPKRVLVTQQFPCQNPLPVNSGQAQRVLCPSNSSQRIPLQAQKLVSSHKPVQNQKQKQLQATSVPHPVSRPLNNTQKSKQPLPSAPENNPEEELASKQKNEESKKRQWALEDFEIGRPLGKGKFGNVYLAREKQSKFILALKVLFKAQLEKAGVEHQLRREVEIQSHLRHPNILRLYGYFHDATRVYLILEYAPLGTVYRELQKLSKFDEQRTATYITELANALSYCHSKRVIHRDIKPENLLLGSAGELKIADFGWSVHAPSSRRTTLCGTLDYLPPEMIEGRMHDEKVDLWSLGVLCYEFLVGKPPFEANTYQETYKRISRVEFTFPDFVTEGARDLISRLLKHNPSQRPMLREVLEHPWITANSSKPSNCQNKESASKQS", "format": "functional"}, "[3]": {"target": "Tyrosine-protein kinase Lck (Homo sapiens, UniProt P06239)", "sequence (P06239 whole entry)": "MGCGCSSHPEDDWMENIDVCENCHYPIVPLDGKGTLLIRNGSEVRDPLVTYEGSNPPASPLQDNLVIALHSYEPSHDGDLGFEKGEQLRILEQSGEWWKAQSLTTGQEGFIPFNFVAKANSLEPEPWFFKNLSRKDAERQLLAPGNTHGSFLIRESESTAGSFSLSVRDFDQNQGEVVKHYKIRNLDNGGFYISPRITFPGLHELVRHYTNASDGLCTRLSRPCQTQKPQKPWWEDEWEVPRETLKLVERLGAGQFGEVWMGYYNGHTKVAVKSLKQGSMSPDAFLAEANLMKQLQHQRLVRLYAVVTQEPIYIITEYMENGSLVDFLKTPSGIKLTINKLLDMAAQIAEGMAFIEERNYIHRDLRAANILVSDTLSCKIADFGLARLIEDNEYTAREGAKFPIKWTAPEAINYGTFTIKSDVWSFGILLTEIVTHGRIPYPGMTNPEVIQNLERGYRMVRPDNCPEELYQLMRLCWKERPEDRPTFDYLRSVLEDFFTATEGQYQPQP", "format": "functional"}, "[4]": {"target": "Calcium/calmodulin-dependent protein kinase type 1 (Homo sapiens, UniProt Q14012)", "sequence (Q14012 whole entry)": "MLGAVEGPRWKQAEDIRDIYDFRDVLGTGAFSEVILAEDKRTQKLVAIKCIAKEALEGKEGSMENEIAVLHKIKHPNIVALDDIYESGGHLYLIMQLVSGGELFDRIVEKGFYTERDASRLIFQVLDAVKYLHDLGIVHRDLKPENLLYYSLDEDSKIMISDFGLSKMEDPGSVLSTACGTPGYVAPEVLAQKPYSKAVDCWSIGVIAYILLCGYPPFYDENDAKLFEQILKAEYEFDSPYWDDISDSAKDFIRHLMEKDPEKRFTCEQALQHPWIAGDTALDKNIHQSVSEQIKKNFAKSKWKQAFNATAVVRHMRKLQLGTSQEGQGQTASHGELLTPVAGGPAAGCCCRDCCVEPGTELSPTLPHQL", "format": "functional"}, "[5]": {"target": "Protein kinase C gamma type (Homo sapiens, UniProt P05129)", "format": "functional"}, "[6]": {"target": "Serine/threonine-protein kinase Nek2 (Homo sapiens, UniProt P51955)", "sequence (P51955 whole entry)": "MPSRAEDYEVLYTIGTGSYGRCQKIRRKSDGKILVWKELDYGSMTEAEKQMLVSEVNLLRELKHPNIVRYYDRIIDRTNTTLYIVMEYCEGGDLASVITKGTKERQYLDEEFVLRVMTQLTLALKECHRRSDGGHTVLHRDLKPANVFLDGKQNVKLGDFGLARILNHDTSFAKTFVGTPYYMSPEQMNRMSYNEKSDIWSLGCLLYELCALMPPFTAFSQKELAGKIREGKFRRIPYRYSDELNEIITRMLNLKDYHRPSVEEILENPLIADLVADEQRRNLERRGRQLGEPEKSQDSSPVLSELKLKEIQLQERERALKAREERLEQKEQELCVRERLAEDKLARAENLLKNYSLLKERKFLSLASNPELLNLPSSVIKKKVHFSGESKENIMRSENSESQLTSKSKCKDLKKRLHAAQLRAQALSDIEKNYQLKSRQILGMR", "format": "functional"}, "Insulin-degrading enzyme": {"target": "T2, Insulin-degrading enzyme (Homo sapiens, UniProt P14735)", "T2 sequence (P14735 whole entry)": "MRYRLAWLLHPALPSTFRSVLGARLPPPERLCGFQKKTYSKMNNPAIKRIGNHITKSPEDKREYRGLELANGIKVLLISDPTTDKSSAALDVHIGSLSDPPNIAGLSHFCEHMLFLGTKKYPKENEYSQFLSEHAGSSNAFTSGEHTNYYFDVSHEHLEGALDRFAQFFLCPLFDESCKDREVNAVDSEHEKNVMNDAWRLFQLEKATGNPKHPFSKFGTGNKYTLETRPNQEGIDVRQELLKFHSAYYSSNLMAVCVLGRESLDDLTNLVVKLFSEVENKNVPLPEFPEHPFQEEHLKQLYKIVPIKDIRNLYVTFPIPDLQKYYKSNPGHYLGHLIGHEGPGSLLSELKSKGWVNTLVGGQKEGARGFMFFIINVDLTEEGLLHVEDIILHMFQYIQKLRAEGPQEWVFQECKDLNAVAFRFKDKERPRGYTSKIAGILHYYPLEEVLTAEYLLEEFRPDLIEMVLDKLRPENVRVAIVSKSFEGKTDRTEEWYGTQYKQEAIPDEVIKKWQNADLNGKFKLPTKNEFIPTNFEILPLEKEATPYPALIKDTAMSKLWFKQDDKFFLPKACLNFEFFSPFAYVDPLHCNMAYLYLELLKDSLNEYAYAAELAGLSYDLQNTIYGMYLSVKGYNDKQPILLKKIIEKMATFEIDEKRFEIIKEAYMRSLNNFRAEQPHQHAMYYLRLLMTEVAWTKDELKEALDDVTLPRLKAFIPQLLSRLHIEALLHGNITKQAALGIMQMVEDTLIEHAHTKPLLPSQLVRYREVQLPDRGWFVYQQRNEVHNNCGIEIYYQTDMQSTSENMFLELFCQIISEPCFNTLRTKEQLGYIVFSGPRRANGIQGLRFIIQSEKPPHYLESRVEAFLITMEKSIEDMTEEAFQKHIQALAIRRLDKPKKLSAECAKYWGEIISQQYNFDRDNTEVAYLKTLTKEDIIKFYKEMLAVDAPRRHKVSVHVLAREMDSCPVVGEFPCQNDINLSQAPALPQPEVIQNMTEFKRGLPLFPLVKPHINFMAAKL", "assay": "recombinant IDE activation, cell-free – biochemical, fluorescence polarization, counter-screen for IDE activator project, dose response (AID 588681)"}, "[7]": {"target": "Small ubiquitin-related modifier 1 (Homo sapiens, UniProt P63165)", "sequence (P63165 whole entry)": "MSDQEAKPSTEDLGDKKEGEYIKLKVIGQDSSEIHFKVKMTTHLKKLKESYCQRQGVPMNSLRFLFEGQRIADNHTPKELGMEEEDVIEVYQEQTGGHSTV", "assay": "SUMO1 protein interaction blockers, potency – biochemical, fluorescence polarization, uHTS hits, dose response (AID 624382)", "format": "functional", "conditions": "read-out: IC50_Mean"}, "BJ": {"tested_on": "BJ", "assay": "BJ-TERT-LT-ST fibroblast viability loss – cell-based, RAS-independent, luminescence, dose response (AID 1935);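 note: BJ fibroblasts immortalized with TERT plus LT and ST oncogenes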", "format": "functional", "conditions": "Homo sapiens"}, "[8]": {"target": "T3, Ubiquitin-conjugating enzyme E2 N (Homo sapiens, UniProt P61088)", "T3 sequence (P61088 whole entry)": "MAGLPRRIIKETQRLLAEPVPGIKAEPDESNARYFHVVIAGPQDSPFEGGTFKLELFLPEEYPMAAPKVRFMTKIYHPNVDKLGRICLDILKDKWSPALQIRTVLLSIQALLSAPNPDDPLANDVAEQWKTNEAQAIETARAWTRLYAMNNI", "format": "functional"}}, "note": "Calls of active or inactive are those of the source."}
{"compound": "CCC(C)NC(=O)c1c(N)n(CCCOC)c2nc3ccccc3nc12", "note": "(stereo unspecified)", "values": [{"measurement": "AC50", "setting": "[1]", "result": "4.25 µM (active)"}]}
{"compound": "CC(=NNC(=N)N)c1cc(NC(=O)NCCCCCCNC(=O)Nc2cc(C(C)=NNC(=N)N)cc(C(C)=NNC(=N)N)c2)cc(C(C)=NNC(=N)N)c1", "values": [{"measurement": "Ki", "setting": "[2]", "result": "2.51 µM (active)"}, {"measurement": "Ki", "setting": "Aurora kinase A", "result": "5.01 µM (active)"}, {"measurement": "Ki", "setting": "[3]", "result": "> 2.51 µM (inactive)"}, {"measurement": "Ki", "setting": "[4]", "result": "3.16 µM (active)"}, {"measurement": "Ki", "setting": "[5]", "result": "0.631 µM (active)"}, {"measurement": "Ki", "setting": "[6]", "result": "3.16 µM (active)"}]}
{"compound": "Cc1cc(N)c2cc(NC(=O)/C=C/c3ccccc3Cl)ccc2n1", "values": [{"measurement": "EC50", "setting": "Insulin-degrading enzyme", "result": "> 54.7 µM (inactive)"}, {"measurement": "IC50", "setting": "[7]", "result": "> 66.6 µM (inactive)"}, {"measurement": "EC50", "setting": "BJ", "result": "2.79 µM (inconclusive)"}, {"measurement": "IC50", "setting": "[8]", "result": "3 µM (active)"}]}
